Laboratory results as given in ChEMBL document CHEMBL3407381, “Synthesis, biological evaluation and 3D QSAR study of 2,4-disubstituted quinolines as anti-tuberculosis agents” (Eur J Med Chem, 2015).

Key:
[1] = system: Mycobacterium tuberculosis; assay: Anti-tuberculosis activity against Mycobacterium tuberculosis H37Rv assessed as inhibition of microbial growth at 6.25 ug/ml by MABA method; type: functional
[2] = system: Mycobacterium tuberculosis; assay: Anti-tuberculosis activity against Mycobacterium tuberculosis H37Rv assessed as inhibition of microbial growth at 3.125 ug/ml by MABA method; type: functional
[3] = system: Mycobacterium tuberculosis; assay: Anti-tuberculosis activity against Mycobacterium tuberculosis H37Rv assessed as inhibition of microbial growth by MABA method; type: functional, organism-based
[4] = system: Mycobacterium tuberculosis; assay: Anti-tuberculosis activity against Mycobacterium tuberculosis H37Rv assessed as inhibition of microbial growth at 1.56 ug/ml by MABA method; type: functional
[5] = system: L929; assay: Cytotoxicity against mouse L929 cells assessed as reduction cell viability after 5 days by MTT assay; type: cell-based; conditions: l929, 120 h

| Compound | inhibition at 6.25 µg/mL [1] [%] | inhibition at 3.125 µg/mL [2] [%] | IC50 [3] [µM] | MIC90 [3] [µg/mL] | inhibition at 1.56 µg/mL [4] [%] | Activity [5] [µg/mL] | MIC99 [3] [µg/mL] |
| --- | --- | --- | --- | --- | --- | --- | --- |
| COC(=O)c1ccc2ccccc2n1 | ≥ 90 |  |  |  |  |  |  |
| NNC(=O)c1cc(C23CC4CC(CC(C4)C2)C3)c2ccccc2n1 | 99 | 99 | 0.389 | 3.12 | 80 | > 200 |  |
| CCCCC(O)c1cc(C23CC4CC(CC(C4)C2)C3)c2ccccc2n1 (centres undefined) | 91 |  | 2.19 | 6.25 |  | > 200 |  |
| NNC(=O)c1cc(CC2CC3CCC2C3)c2ccccc2n1 (centres undefined) | 92 |  | 1.95 | 6.25 |  | > 200 |  |
| CC1CCCCC1c1cc(C(=O)NN)nc2ccccc12 (centres undefined) | 99 | 99 | 0.457 | 3.12 | 77 | > 200 |  |
| CC(C)(C)C1CCC(c2cc(C(=O)NN)nc3ccccc23)CC1 (centres undefined) | 99 | 99 | 0.347 | 3.12 | 82 | > 200 |  |
| CC1CCC(c2cc(C(=O)NN)nc3ccccc23)CC1 (centres undefined) | 84 |  | 3.55 | 6.25 |  | > 200 |  |
| NNC(=O)c1cc(C2CCC(C(F)(F)F)CC2)c2ccccc2n1 (centres undefined) | 89 |  | 2.75 | 6.25 |  | > 200 |  |
| COC1CCCC(c2cc(C(=O)NN)nc3ccccc23)C1 (centres undefined) | 90 |  | 2.95 | 6.25 |  | > 200 |  |
| CO[C@H]1CC[C@H](c2cc(C(=O)NN)nc3ccccc32)CC1 | 32 |  | 32.4 | 6.25 |  | > 200 |  |
| CO[C@H]1CC[C@@H](c2cc(C(=O)NN)nc3ccccc32)CC1 | 90 |  | 2.34 | 6.25 |  | > 200 |  |
| C=CCC(O)c1cc(C23CC4CC(CC(C4)C2)C3)c2ccccc2n1 (centres undefined) | 44 |  | 22.9 | 6.25 |  | > 200 |  |
| OC(c1ccccc1)c1cc(C23CC4CC(CC(C4)C2)C3)c2ccccc2n1 (centres undefined) | 86 |  | 3.09 | 6.25 |  | > 200 |  |
| COc1ccc(C(O)c2cc(C34CC5CC(CC(C5)C3)C4)c3ccccc3n2)cc1 (centres undefined) | 47 |  | 83.2 | 6.25 |  | > 200 |  |
| Cc1ccc(C(O)c2cc(C34CC5CC(CC(C5)C3)C4)c3ccccc3n2)cc1 (centres undefined) | 76 |  | 5.01 | 6.25 |  | > 200 |  |
| OC(c1ccc(F)cc1)c1cc(C23CC4CC(CC(C4)C2)C3)c2ccccc2n1 (centres undefined) | 99 | 99 | 0.316 | 3.12 | 69 | > 200 |  |

| Compound | inhibition at 6.25 µg/mL [1] [%] | inhibition at 3.125 µg/mL [2] [%] | IC50 [3] [µM] | MIC90 [3] [µg/mL] | inhibition at 1.56 µg/mL [4] [%] | Activity [5] [µg/mL] | MIC99 [3] [µg/mL] |
| --- | --- | --- | --- | --- | --- | --- | --- |
| CN(C)c1ccc(C(O)c2cc(C34CC5CC(CC(C5)C3)C4)c3ccccc3n2)cc1 (centres undefined) | 4 |  | 331 | 6.25 |  | > 200 |  |
| CCC(O)c1cc(C23CC4CC(CC(C4)C2)C3)c2ccccc2n1 (centres undefined) | 73 |  | 6.92 | 6.25 |  | > 200 |  |
| CCCC(O)c1cc(C23CC4CC(CC(C4)C2)C3)c2ccccc2n1 (centres undefined) | 86 |  | 4.47 | 6.25 |  | > 200 |  |
| OC(c1cc(C23CC4CC(CC(C4)C2)C3)c2ccccc2n1)c1cccc2ccccc12 (centres undefined) | 9 |  | 182 | 6.25 |  | > 200 |  |
| O=C(c1cc(C23CC4CC(CC(C4)C2)C3)c2ccccc2c1)N1CCNCC1 | 82 |  | 3.09 | 6.25 |  | > 200 |  |
| O=C(NC1CCN(Cc2ccccc2)CC1)c1cc(C23CC4CC(CC(C4)C2)C3)c2ccccc2c1 | 90 |  | 1.51 | 6.25 |  | > 200 |  |
| CN1CCN(C(=O)c2cc(C34CC5CC(CC(C5)C3)C4)c3ccccc3c2)CC1 | 87 |  | 5.89 | 6.25 |  | > 200 |  |
| O=C(c1cc(C23CC4CC(CC(C4)C2)C3)c2ccccc2c1)N1CCCCC1 | 9 |  | 120 | 6.25 |  | > 200 |  |
| O=C(c1cc(C23CC4CC(CC(C4)C2)C3)c2ccccc2c1)N1CCN(c2ccccn2)CC1 | 8 |  | 63.1 | 6.25 |  | > 200 |  |
| O=C(c1cc(C23CC4CC(CC(C4)C2)C3)c2ccccc2c1)N1CCCC1 | 53 |  | 13.2 | 6.25 |  | > 200 |  |
| O=C(c1cc(C23CC4CC(CC(C4)C2)C3)c2ccccc2c1)N1CCOCC1 | 14 |  | 110 | 6.25 |  | > 200 |  |
| O=C(c1cc(C23CC4CC(CC(C4)C2)C3)c2ccccc2c1)N1CCN(c2ccccc2)CC1 | 90 |  | 0.871 | 6.25 |  | > 200 |  |
| O=C(NO)c1cc(C23CC4CC(CC(C4)C2)C3)c2ccccc2c1 | 91 |  | 1.17 | 6.25 |  | > 200 |  |
| COC(=O)c1cc(C23CC4CC(CC(C4)C2)C3)c2ccccc2n1 | ≥ 90 |  |  |  |  |  |  |
| NNC(=O)c1ccncc1 [ISONIAZID] |  |  |  |  |  |  | 0.1 |
| CO[C@H]1/C=C/O[C@@]2(C)Oc3c(C)c(O)c4c(O)c(c(/C=N/N5CCN(C)CC5)c(O)c4c3C2=O)NC(=O)/C(C)=C\C=C\[C@H](C)[C@H](O)[C@@H](C)[C@@H](O)[C@@H](C)[C@H](OC(C)=O)[C@@H]1C [RIFAMPIN] |  |  |  |  |  |  | 0.2 |
